Experiments:
[1] = test system: ulcers in rats in the stomach region; assay: Determination of anti-ulcer activity (Shay method, ulcers induced in rats by pyloric ligation); format: in vivo; settings: via the mouth, 16 hours after treatment
Excerpt: (1) Determination of anti-ulcer activity
The method used is described by Shay et al. in Gastroenterology, 5, 43, (1945).
The Shay method consists of inducing ulcers in rats in the stomach region by pyloric ligation.
The animals are anesthetized with ether. A longitudinal incision is made, 1 cm below the sternum; the glandular part of the stomach and the duodenum are exposed, and a ligature is placed several mm below the pylorus. The muscular sheet is left as it is and the skin is sutured with 2 clips.
The animals immediately receive the dispersive or the substance to be studied, via the mouth, in a volume of 0.5 ml/100 g and are kept without food or drink until sacrificed, 16 hours after the treatment, by carotid bleeding.
Before removal of the stomach, a ligature is placed above the cardia.
The gastric liquid is collected for measurement of pH.
The stomach is then opened along the major curvature, rinsed with physiological serum, and spread out on millimeter graph paper to be examined under a binocular magnifier.
The severity of the lesions, graded 0 to 4, is macroscopically evaluated for each stomach.
For each group of rats, the mean intensity of the ulcerations is determined, and the protection is calculated as the ratio of the mean index for the treated group to the mean index for the control group.
The pH values of the gastric liquid are likewise determined for the treated and control animals.

[2] = Determination of Acute Toxicity (oral LD50 in mice); settings: mouse, in vivo
Method: (2) Determination of Acute Toxicity
The lethal dose LD50 of the derivatives of certain examples were evaluated after administration by the oral route in mice.

## COc1ccc(C(=O)CC(O)C(=O)O)cc1OC (stereo not shown) [Example 1, 4-(3,4-dimethoxyphenyl)-4-oxo-2-hydroxy-butanoic acid]
[1]; 0.8 mg/kg
  Ulcerations, % of protection with respect to controls: 27%
  pH of gastric liquid, treated animals: 3.4
[1]; 4 mg/kg
  Ulcerations, % of protection with respect to controls: 72%
  pH of gastric liquid, treated animals: 3.0
[1]; 20 mg/kg
  Ulcerations, % of protection with respect to controls: 72%
  pH of gastric liquid, treated animals: 2.3
[2]
  LD50: > 1000 mg/kg

## O=C(CC(O)C(=O)O)c1ccc(Cl)cc1 (stereo not shown) [Example 2, 4-(4-chlorophenyl)-4-oxo-2-hydroxy-butanoic acid]
[1]; 4 mg/kg
  Ulcerations, % of protection with respect to controls: 25%
  pH of gastric liquid, treated animals: 3.5
[1]; 20 mg/kg
  Ulcerations, % of protection with respect to controls: 72%
  pH of gastric liquid, treated animals: 3.0
[2]
  LD50: > 1000 mg/kg

## O=C(CC(O)C(=O)O)c1ccc(Cl)c(Cl)c1 (stereo not shown) [Example 3, 4-(3,4-dichlorophenyl)-4-oxo-2-hydroxy-butanoic acid]
[1]; 20 mg/kg
  Ulcerations, % of protection with respect to controls: 36%
  pH of gastric liquid, treated animals: 3.2
[1]; 100 mg/kg
  Ulcerations, % of protection with respect to controls: 91%
  pH of gastric liquid, treated animals: 4.2
[2]
  LD50: > 1000 mg/kg

## O=C(CC(O)C(=O)O)c1ccc(Cl)cc1Cl (stereo not shown) [Example 4, 4-(2,4-dichlorophenyl)-4-oxo-2-hydroxy-butanoic acid]
[1]; 20 mg/kg
  Ulcerations, % of protection with respect to controls: 9%
  pH of gastric liquid, treated animals: 2.9
[1]; 100 mg/kg
  Ulcerations, % of protection with respect to controls: 91%
  pH of gastric liquid, treated animals: 4.4
[2]
  LD50: > 1000 mg/kg

## O=C(CC(O)C(=O)O)c1ccc(Br)cc1 (stereo not shown) [Example 5, 4-(4-bromophenyl)-4-oxo-2-hydroxy-butanoic acid]
[1]; 20 mg/kg
  Ulcerations, % of protection with respect to controls: 40%
  pH of gastric liquid, treated animals: 3.1
[1]; 100 mg/kg
  Ulcerations, % of protection with respect to controls: 95%
  pH of gastric liquid, treated animals: 3.4
[2]
  LD50: > 1000 mg/kg

## O=C(CC(O)C(=O)O)c1ccc([N+](=O)[O-])cc1 (stereo not shown) [Example 8, 4-(4-nitrophenyl)-4-oxo-2-hydroxy-butanoic acid]
[1]; 100 mg/kg
  Ulcerations, % of protection with respect to controls: 49%
  pH of gastric liquid, treated animals: 3.0
[2]
  LD50: > 1000 mg/kg

## COc1cc(OC)cc(C(=O)CC(O)C(=O)O)c1 (stereo not shown) [Example 11, 4-(3,5-dimethoxyphenyl)-4-oxo-2-hydroxy-butanoic acid]
[1]; 1 mg/kg
  Ulcerations, % of protection with respect to controls: 53%
  pH of gastric liquid, treated animals: 1.9
[1]; 4 mg/kg
  Ulcerations, % of protection with respect to controls: 50%
  pH of gastric liquid, treated animals: 2.0
[1]; 20 mg/kg
  Ulcerations, % of protection with respect to controls: 60%
  pH of gastric liquid, treated animals: 2.0
[1]; 100 mg/kg
  Ulcerations, % of protection with respect to controls: 88%
  pH of gastric liquid, treated animals: 3.0
[2]
  LD50: > 1000 mg/kg

## O=C(CC(O)C(=O)O)c1ccccc1[N+](=O)[O-] (stereo not shown) [Example 13, 4-(2-nitrophenyl)-4-oxo-2-hydroxy-butanoic acid]
[2]
  LD50: > 1000 mg/kg

Reference: patent US4402978A, “Gastro-protecting activity of substituted derivatives of 4-phenyl-4-oxo-2-hydroxy-butanoic acid” (Roussel-Uclaf, priority 1980, dated 1983)
